Here are results for three molecules from article PMC3974725, “A Random Sequential Mechanism of Aminoglycoside Acetylation by Mycobacterium tuberculosis Eis Protein” (PLoS ONE, 2014).

The target in assay [1] is T1, MtEis (Mycobacterium tuberculosis, UniProt P9WFK7). Conditions: cited from earlier work.
For assay [2], the target named is T1, MtEis. The assay is described as follows: Steady-state acetyltransferase assays (DTNB, absorbance at 412 nm), bisubstrate kinetic analysis. The format is biochemical.

Read-outs that look alike come from different tables or passages of the source.

T1 sequence (P9WFK7 whole entry, looked up): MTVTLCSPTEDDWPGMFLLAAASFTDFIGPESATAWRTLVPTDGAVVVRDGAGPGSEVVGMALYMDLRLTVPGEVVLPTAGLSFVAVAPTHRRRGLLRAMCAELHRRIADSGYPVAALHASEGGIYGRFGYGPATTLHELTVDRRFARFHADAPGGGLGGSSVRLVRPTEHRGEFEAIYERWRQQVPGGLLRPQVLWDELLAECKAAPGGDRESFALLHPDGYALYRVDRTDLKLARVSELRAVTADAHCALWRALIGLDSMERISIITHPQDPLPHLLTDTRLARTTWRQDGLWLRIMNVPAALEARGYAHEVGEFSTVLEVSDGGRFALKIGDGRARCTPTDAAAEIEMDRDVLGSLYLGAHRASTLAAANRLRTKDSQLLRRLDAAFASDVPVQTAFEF

On to `NC[C@@H]1O[C@H](O[C@H]2[C@@H](O)[C@H](O[C@@H]3[C@@H](O)[C@H](N)C[C@H](N)[C@H]3O[C@H]3O[C@H](CN)[C@@H](O)[C@H](O)[C@H]3N)O[C@@H]2CO)[C@H](N)[C@@H](O)[C@@H]1O` [NEO, neomycin B], for which the “extent of acetylation by MtEis” value at MtEis [1] is reported as “tri-acetylated”. Further, at MtEis [2] (NEO versus KAN, K d,AG(AcCoA•E)), the “higher affinity for the AcCoA bound enzyme than KAN” value was “approximately 3 fold”. In addition, the Kd at MtEis [2] (binding of AG to free enzyme, from thermodynamic cycle K d,AcCoA(E) K d,AG(AcCoA•E)/K d,AcCoA(AG•E), read-out: K d,AG(E)) was found to be 22 ± 17 µM; at MtEis [2] (binding of AG to the AcCoA bound enzyme, simultaneous fit of KAN and NEO acetylation data, read-out: K d,AG(AcCoA•E)) it was 135 ± 53 µM.

On to kanamycin A, for which the “extent of acetylation by MtEis” value at MtEis [1] is “di-acetylated”. Also, the “k cat (microscopic rate constant of the acetylation step)” value at MtEis [2] (AG as substrate of MtEis, random sequential mechanism fit, Tris 50 mM, pH 8.0) came out at 0.68 ± 0.15 s⁻¹.

Take `CC(=O)SCCNC(=O)CCNC(=O)[C@H](O)C(C)(C)COP(=O)(O)OP(=O)(O)OC[C@H]1O[C@@H](n2cnc3c(N)ncnc32)[C@H](O)[C@@H]1OP(=O)(O)O` [AcCoA, acetyl coenzyme A]: the “K d,AcCoA(E) lower than that for AcCoA binding to Eis from M. smegmatis” value at MtEis [2] (MtEis versus M. smegmatis Eis value of ref 6) is reported as “about 4 fold”. The Kd was 18 ± 14 µM at MtEis [2] (binding of AcCoA to free MtEis, read-out: K d,AcCoA(E)); 45 ± 37 µM on MtEis [2] (binding of AcCoA to the KAN bound enzyme, read-out: K d,AcCoA(AG•E)); 111 ± 62 µM at MtEis [2] (binding of AcCoA to the NEO bound enzyme, read-out: K d,AcCoA(AG•E)).
